Experimental data: patent US20080014145A1, “ABALONE SETTLEMENT BIOASSAY FOR ANTI-SEIZURE SUBSTANCE SCREENING” (priority 2006, published 2008)

Assays:
[1] = tested on: Haliotis rufescens larvae; conditions: cited from earlier work; for induction of larvae settlement: in vivo
[2] = tested on: two different species of Haliotis; conditions: cited from earlier work
[3] = molecular target: T1, thyroxine-binding globulin (Homo sapiens, UniProt P05543); conditions: cited from earlier work
T1 sequence (P05543 21-415): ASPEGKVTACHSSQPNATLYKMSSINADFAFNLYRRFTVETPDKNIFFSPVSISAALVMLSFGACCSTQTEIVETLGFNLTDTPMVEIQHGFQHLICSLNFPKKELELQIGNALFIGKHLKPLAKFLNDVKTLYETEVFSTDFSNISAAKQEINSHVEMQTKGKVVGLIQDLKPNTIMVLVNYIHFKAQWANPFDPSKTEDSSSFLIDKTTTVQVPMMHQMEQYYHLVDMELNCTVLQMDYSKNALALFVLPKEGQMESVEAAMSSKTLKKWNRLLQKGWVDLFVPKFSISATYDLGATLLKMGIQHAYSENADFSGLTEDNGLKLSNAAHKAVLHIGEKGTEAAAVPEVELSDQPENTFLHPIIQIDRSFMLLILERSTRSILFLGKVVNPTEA

[4] = tested on: chemically induced electrographic seizures; assay: Focal perfusion of rat cerebral cortex, chemically induced electrographic seizures; format: in vivo; conditions: focal perfusion of local areas of rat cerebral cortex; personal experience
Haliotis rufescens = conditions: in vivo; cited from earlier work
[5] = tested on: larvae of Haliotis discus hannai; conditions: in vivo; cited from earlier work

Row | SMILES | induction of larvae settlement [1] | further results
1 | CCCC(=O)O [n-butyric acid] | not able to induce | 
2 | CNC[C@H](O)c1ccc(O)c(O)c1 [epinephrine] | not able to induce | 
3 | NCCCCCC(=O)O [ε-amniocaproic acid] | can also induce Haliotis larvae settlement | 
4 | NCCCCC(=O)O [δ-amniovaleric] | can also induce Haliotis larvae settlement | 
5 | N[C@@H](Cc1cc(I)c(Oc2ccc(O)c(I)c2)c(I)c1)C(=O)O [T3] |  | induction of larval metamorphosis [2]: can induce larval metamorphosis
6 | CCCCN [n-butylamine] | not able to induce | 
7 | CN1C(=O)CN=C(c2ccccc2)c2cc(Cl)ccc21 [diazepam] |  | inhibition of thyroxine binding to thyroxine-binding globulin [3]: competitively inhibit
8 | NCCCC(=O)O [GABA, γ-aminobutyric acid] |  | larval attachment ([1]; 10^−6 molar in sea water): 96-100%
9 | NCCc1c[nH]c2ccc(O)cc12 [serotonin] | not able to induce | 
10 | NCc1cc(=O)[nH]o1 [muscimol] | can also induce Haliotis larvae settlement | 
11 | N[C@@H](CCC(=O)O)C(=O)O [L-glutamate] | did slowly promote larval settlement | 
12 | [Mg+2] [Mg^+2] | not able to induce | 
13 | [K+] [potassium] |  | promotion of settlement ([1]; higher concentrations of K^+): will not promote settlement; effect on settlement induction by GABA ([1]; low concentration of K^+): inhibit induction by GABA; larva attached ([1]; ˜10 mM above that found in seawater, within 72 hours): up to 90%
14 | [Cl-].[K+] [potassium chloride] |  | effect on chemically induced electrographic seizures [4]: may prevent or abort
15 | NCCc1c[nH]cn1 [histamine] | not able to induce | 
16 | N[C@@H](Cc1cc(I)c(Oc2cc(I)c(O)c(I)c2)c(I)c1)C(=O)O [L-thyroxine] |  | induction of larval metamorphosis [2]: can induce larval metamorphosis; induction of larval metamorphosis (Haliotis rufescens): could induce larval metamorphosis
17 | NCC(=O)O [glycine] | can also induce Haliotis larvae settlement | 
18 | NC(=O)CC[C@H](N)C(=O)O [L-glutamine] | completely ineffective | 
19 | CBr [bromomethane] |  | induction in larvae [5]: induction has been triggered
20 | [Na+] [Na^+] | not able to induce | 
21 | N[C@H](CCC(=O)O)C(=O)O [D-glutamate] | completely ineffective | 
22 | NCCC(=O)O [β-alanine] | can also induce Haliotis larvae settlement | 
23 | Br [Br^−] |  | induction of settlement by anion replacement ([1]; replacing 25-75% of the Cl^− in seawater): may be induced
24 | NC[C@H](O)c1ccc(O)c(O)c1 [norepinephrine] | not able to induce | 
